Measured values reported in patent US11737461B2, “Citrate perhydrates and uses thereof” (BIOREM ENGINEERING SA, priority 2018, dated 2023).

Columns and labels:
Botrytis cinerea = conditions: samples at equivalent concentrations (0.2 M)
[1] = pH of an aqueous solution of the compound (pH meter); type: physicochemical; conditions: for pH: sample solution of Table 13 (0.2 M H2O2 and/or citrate)
[2] = other compound containing hydrogen peroxide, dissolved; cited from earlier work

## O.O.O=C([O-])CC(O)(CC(=O)[O-])C(=O)[O-].OO.[Na+].[Na+].[Na+] [trisodium citrate monoperhydrate dihydrate]
Botrytis cinerea
  MIC Botrytis: 72 mM
[1]; diluted 20× in water
  pH of an aqueous solution: 7.6 (±0.3)
[1]
  pH: 8.2

## anhydrous disodium citrate monoperhydrate [disodium citrate perhydrate]
Botrytis cinerea
  MIC Botrytis: 108 mM

## O=C(O)CC(O)(CC(=O)O)C(=O)O [Acide citrique, Citric acid]
Botrytis cinerea
  MIC Botrytis: non actif

## O=C([O-])[O-].O=C([O-])[O-].OO.OO.OO.[Na+].[Na+].[Na+].[Na+] [sodium percarbonate]
[2]
  pH obtained by dissolving: 11

## O.O.O.O=C([O-])CC(O)(CC(=O)[O-])C(=O)O.O=C([O-])CC(O)(CC(=O)[O-])C(=O)O.[Na+].[Na+].[Na+].[Na+] [Disodium citrate sesquihydrate]
Botrytis cinerea
  MIC Botrytis: non actif
[1]
  pH: 4.9

## OO [Hydrogen peroxide]
Botrytis cinerea
  MIC Botrytis: non actif
[1]
  pH: 6.4
